Peptide text beside a SMILES is read from it.
Tested on: melanin-forming cells (B16F10 cell line)
Assay: Cytotoxicity test (MTT assay)
Type: cell-based, mouse
Conditions: B16F10, 1 uM to 200 uM, 72 hours, serum-free medium
Procedure: After melanin-forming cells (B16F10 cell line) dispensed in 48-well culture plates were incubated in a 37° C. incubator for 24 hours, the medium for each plate was removed and replaced with serum-free medium, and then the cells were treated with the peptide of the present invention at different concentrations (1, 10, 50, 100, 150, 200 uM). After the cells were incubated for 72 hours, the MTT reagent was added, followed by reaction for 4 hours. Then, the generated formazan was dissolved in DMSO, and the absorbance was measured at 560 nm.

`CCCC(CCC)C(=O)N[C@H](C(=O)N[C@@H](Cc1c[nH]c2ccccc12)C(=O)N[C@@H](CO)C(=O)N[C@@H](CC(C)C)C(=O)N[C@@H](CC(=O)O)C(=O)N[C@H](C(=O)N[C@@H](CCC(N)=O)C(=O)N[C@@H](Cc1ccc(O)cc1)C(=O)NCC(=O)NCC(=O)N[C@@H](CCCNC(=N)N)C(=O)NCC(=O)N[C@@H](CC(=O)O)C(=O)O)[C@@H](C)O)[C@@H](C)CC` [Valprooyl-Ile-Trp-Ser-Leu-Asp-Thr-Gln-Tyr-Gly-Gly-Arg-Gly-Asp-COOH] (HELM PEPTIDE1{[CCCC(CCC)C(=O)[*:2]].I.W.S.L.D.T.Q.Y.G.G.R.G.D}$$$$V2.0) was tested, and the “cytotoxicity on melanocytes (MTT assay)” value was “no cytotoxicity was observed”.

From patent US10080775B2, “Peptide having skin whitening activity, and use thereof” (CAREGEN CO., LTD., priority 2017, dated 2018)
